# Measured values published in ChEMBL document CHEMBL3046635, “Synthesis and Herbicidal Activity of New Pyrazole-4-carboxamide Derivatives” (J Pestic Sci, 2004).
# The source made the active and inactive calls. Unless noted, the rule behind the calls is not given here.
# Legend:
# Ammannia multiflora [1] = test: Pre-emergence herbicidal activity against Ammannia multiflora at 500 g a.i/ha measured after 14 days; type: functional, organism-based
# Elatine triandra [2] = test: Pre-emergence herbicidal activity against Elatine triandra at 100 g a.i/ha measured after 14 days; type: functional, organism-based
# Pontederia vaginalis [3] = test: Post-emergence herbicidal activity against Monochoria vaginalis assessed as bleaching of stem/leaf parts; type: functional, organism-based; also: test concentration or dose not given here
# Eleocharis acicularis [4] = test: Pre-emergence herbicidal activity against Eleocharis acicularis at 500 g a.i/ha measured after 14 days; type: functional, organism-based
# [5] = system: Schoenoplectiella juncoides; test: Pre-emergence herbicidal activity against Schoenoplectiella juncoides at 100 g a.i/ha measured after 14 days; type: functional, organism-based
# Oryza sativa [6] = test: Phytotoxicity against Oryza sativa cv. Koshihikari (rice) at 100 g a.i/ha measured after 14 days; type: organism-based; details: in vivo, 336 h
# Lindernia procumbens [7] = test: Pre-emergence herbicidal activity against Lindernia procumbens at 100 g a.i/ha measured after 14 days; type: functional, organism-based
# Cyperus difformis [8] = test: Pre-emergence herbicidal activity against Cyperus difformis at 100 g a.i/ha measured after 14 days; type: functional, organism-based
# Elatine triandra [9] = test: Pre-emergence herbicidal activity against Elatine triandra assessed as bleaching of stem/leaf parts; type: functional, organism-based
# Pontederia vaginalis [10] = test: Pre-emergence herbicidal activity against Monochoria vaginalis at 100 g a.i/ha measured after 14 days; type: functional, organism-based
# Oryza sativa [11] = test: Phytotoxicity against Oryza sativa cv. Koshihikari (rice) at 500 g a.i/ha measured after 14 days; type: organism-based; details: in vivo, 336 h
# [12] = system: Schoenoplectiella juncoides; test: Post-emergence herbicidal activity against Schoenoplectiella juncoides assessed as bleaching of stem/leaf parts; type: functional, organism-based; also: test concentration or dose not given here
# Cyperus difformis [13] = test: Pre-emergence herbicidal activity against Cyperus difformis assessed as bleaching of stem/leaf parts; type: functional, organism-based
# Rotala indica [14] = test: Pre-emergence herbicidal activity against Rotala indica at 500 g a.i/ha measured after 14 days; type: functional, organism-based
# Cyperus difformis [15] = test: Post-emergence herbicidal activity against Cyperus difformis assessed as bleaching of stem/leaf parts; type: functional, organism-based; also: test concentration or dose not given here
# Lindernia procumbens [16] = test: Post-emergence herbicidal activity against Lindernia procumbens assessed as bleaching of stem/leaf parts; type: functional, organism-based; also: test concentration or dose not given here
# Lindernia procumbens [17] = test: Pre-emergence herbicidal activity against Lindernia procumbens at 500 g a.i/ha measured after 14 days; type: functional, organism-based
# [18] = system: Schoenoplectiella juncoides; test: Pre-emergence herbicidal activity against Schoenoplectiella juncoides at 500 g a.i/ha measured after 14 days; type: functional, organism-based
# Ammannia multiflora [19] = test: Pre-emergence herbicidal activity against Ammannia multiflora at 100 g a.i/ha measured after 14 days; type: functional, organism-based
# [20] = system: Schoenoplectiella juncoides; test: Pre-emergence herbicidal activity against Schoenoplectiella juncoides assessed as bleaching of stem/leaf parts; type: functional, organism-based
# Ammannia multiflora [21] = test: Post-emergence herbicidal activity against Ammannia multiflora assessed as bleaching of stem/leaf parts; type: functional, organism-based; also: test concentration or dose not given here
# Ammannia multiflora [22] = test: Pre-emergence herbicidal activity against Ammannia multiflora assessed as bleaching of stem/leaf parts; type: functional, organism-based
# Echinochloa oryzicola [23] = test: Pre-emergence herbicidal activity against Echinochloa oryzicola at 500 g a.i/ha measured after 14 days; type: functional, organism-based
# Elatine triandra [24] = test: Post-emergence herbicidal activity against Elatine triandra assessed as bleaching of stem/leaf parts; type: functional, organism-based; also: test concentration or dose not given here
# Rotala indica [25] = test: Post-emergence herbicidal activity against Rotala indica assessed as bleaching of stem/leaf parts; type: functional, organism-based; also: test concentration or dose not given here
# Rotala indica [26] = test: Pre-emergence herbicidal activity against Rotala indica assessed as bleaching of stem/leaf parts; type: functional, organism-based
# Pontederia vaginalis [27] = test: Pre-emergence herbicidal activity against Monochoria vaginalis at 500 g a.i/ha measured after 14 days; type: functional, organism-based
# Echinochloa oryzicola [28] = test: Post-emergence herbicidal activity against Echinochloa oryzicola assessed as bleaching of stem/leaf parts; type: functional, organism-based; also: test concentration or dose not given here
# Cyperus difformis [29] = test: Pre-emergence herbicidal activity against Cyperus difformis at 500 g a.i/ha measured after 14 days; type: functional, organism-based
# Pontederia vaginalis [30] = test: Pre-emergence herbicidal activity against Monochoria vaginalis assessed as bleaching of stem/leaf parts; type: functional, organism-based
# Echinochloa oryzicola [31] = test: Pre-emergence herbicidal activity against Echinochloa oryzicola at 100 g a.i/ha measured after 14 days; type: functional, organism-based
# Rotala indica [32] = test: Pre-emergence herbicidal activity against Rotala indica at 100 g a.i/ha measured after 14 days; type: functional, organism-based
# Echinochloa oryzicola [33] = test: Pre-emergence herbicidal activity against Echinochloa oryzicola assessed as bleaching of stem/leaf parts; type: functional, organism-based
# Eleocharis acicularis [34] = test: Post-emergence herbicidal activity against Eleocharis acicularis assessed as bleaching of stem/leaf parts; type: functional, organism-based; also: test concentration or dose not given here
# Elatine triandra [35] = test: Pre-emergence herbicidal activity against Elatine triandra at 500 g a.i/ha measured after 14 days; type: functional, organism-based
# Eleocharis acicularis [36] = test: Pre-emergence herbicidal activity against Eleocharis acicularis assessed as bleaching of stem/leaf parts; type: functional, organism-based
# Lindernia procumbens [37] = test: Pre-emergence herbicidal activity against Lindernia procumbens assessed as bleaching of stem/leaf parts; type: functional, organism-based
# Eleocharis acicularis [38] = test: Pre-emergence herbicidal activity against Eleocharis acicularis at 100 g a.i/ha measured after 14 days; type: functional, organism-based
SMILES,Activity (Ammannia multiflora [1]),Activity (Elatine triandra [2]),Activity (Pontederia vaginalis [3]),Activity (Eleocharis acicularis [4]),Activity [5],Activity (Oryza sativa [6]),Activity (Lindernia procumbens [7]),Activity (Cyperus difformis [8]),Activity (Elatine triandra [9]),Activity (Pontederia vaginalis [10]),Activity (Oryza sativa [11]),Activity [12],Activity (Cyperus difformis [13]),Activity (Rotala indica [14]),Activity (Cyperus difformis [15]),Activity (Lindernia procumbens [16]),Activity (Lindernia procumbens [17]),Activity [18],Activity (Ammannia multiflora [19]),Activity [20],other results
Cn1cc(C(=O)Nc2ccccc2)c(OCc2cccc(C(F)(F)F)c2)n1,Active,Active,Active,Active,inactive,Non-toxic,Active,inactive,Active,Active,Non-toxic,Active,Active,Active,Active,Active,Active,Active,Active,Active,Activity (Ammannia multiflora [21]): Active; Activity (Ammannia multiflora [22]): Active; Activity (Echinochloa oryzicola [23]): Active; Activity (Elatine triandra [24]): Active; Activity (Rotala indica [25]): Active; Activity (Rotala indica [26]): Active; Activity (Pontederia vaginalis [27]): Active; Activity (Echinochloa oryzicola [28]): Active; Activity (Cyperus difformis [29]): Active; Activity (Pontederia vaginalis [30]): Active; Activity (Echinochloa oryzicola [31]): Active; Activity (Rotala indica [32]): Active; Activity (Echinochloa oryzicola [33]): Active; Activity (Eleocharis acicularis [34]): Active; Activity (Elatine triandra [35]): Active; Activity (Eleocharis acicularis [36]): Active; Activity (Lindernia procumbens [37]): Active; Activity (Eleocharis acicularis [38]): Active
Cn1cc(C(=O)NOc2ccc(Cl)cc2Cl)c(OCc2cccc(C(F)(F)F)c2)n1,Active,Active,Active,Active,inactive,Non-toxic,Active,Active,Active,Active,Non-toxic,Active,Active,Active,Active,Active,Active,Active,Active,Active,Activity (Ammannia multiflora [21]): Active; Activity (Ammannia multiflora [22]): Active; Activity (Echinochloa oryzicola [23]): Active; Activity (Elatine triandra [24]): Active; Activity (Rotala indica [25]): Active; Activity (Rotala indica [26]): Active; Activity (Pontederia vaginalis [27]): Active; Activity (Echinochloa oryzicola [28]): Active; Activity (Cyperus difformis [29]): Active; Activity (Pontederia vaginalis [30]): Active; Activity (Echinochloa oryzicola [31]): Active; Activity (Rotala indica [32]): Active; Activity (Echinochloa oryzicola [33]): Active; Activity (Eleocharis acicularis [34]): Active; Activity (Elatine triandra [35]): Active; Activity (Eleocharis acicularis [36]): Active; Activity (Lindernia procumbens [37]): Active; Activity (Eleocharis acicularis [38]): Active
CCCCONC(=O)c1cn(C)nc1OCc1cccc(C(F)(F)F)c1,Active,Active,Active,Active,Active,Non-toxic,Active,Active,Active,Active,Toxic,Active,Active,Active,Active,Active,Active,Active,Active,Active,Activity (Ammannia multiflora [21]): Active; Activity (Ammannia multiflora [22]): Active; Activity (Echinochloa oryzicola [23]): Active; Activity (Elatine triandra [24]): Active; Activity (Rotala indica [25]): Active; Activity (Rotala indica [26]): Active; Activity (Pontederia vaginalis [27]): Active; Activity (Echinochloa oryzicola [28]): Active; Activity (Cyperus difformis [29]): Active; Activity (Pontederia vaginalis [30]): Active; Activity (Echinochloa oryzicola [31]): Active; Activity (Rotala indica [32]): Active; Activity (Echinochloa oryzicola [33]): Active; Activity (Eleocharis acicularis [34]): Active; Activity (Elatine triandra [35]): Active; Activity (Eleocharis acicularis [36]): Active; Activity (Lindernia procumbens [37]): Active; Activity (Eleocharis acicularis [38]): Active
CONC(=O)c1cn(C)nc1OCc1cccc(C(F)(F)F)c1,Active,Active,Active,Active,Active,Non-toxic,Active,Active,Active,Active,Non-toxic,Active,Active,Active,Active,Active,Active,Active,Active,Active,Activity (Ammannia multiflora [21]): Active; Activity (Ammannia multiflora [22]): Active; Activity (Echinochloa oryzicola [23]): Active; Activity (Elatine triandra [24]): Active; Activity (Rotala indica [25]): Active; Activity (Rotala indica [26]): Active; Activity (Pontederia vaginalis [27]): Active; Activity (Echinochloa oryzicola [28]): Active; Activity (Cyperus difformis [29]): Active; Activity (Pontederia vaginalis [30]): Active; Activity (Echinochloa oryzicola [31]): Active; Activity (Rotala indica [32]): Active; Activity (Echinochloa oryzicola [33]): Active; Activity (Eleocharis acicularis [34]): Active; Activity (Elatine triandra [35]): Active; Activity (Eleocharis acicularis [36]): Active; Activity (Lindernia procumbens [37]): Active; Activity (Eleocharis acicularis [38]): inactive
